Legend:
[1] = compound: Cc1c2c(nn1C)CSCc1cc(n(C)n1)CSc1cc(c3ccccc3c1)OCCCc1c(C(=O)O)n(C)c3c-2c(Cl)ccc13 [AZD5991]; conditions: max 1 µM
Outline: (§1)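 Cancer cell lines were seeded in 1536-well plates in 7.5 μl DMEM/F12 or RPMI with 10% FBS, held 24 hours at 37°C and 5% CO2, then dosed for 72 hours (final DMSO typically 0.2%). Viability was read by CellTiter-Glo 2.0 luminescence and scaled between blank-well and DMSO-well means. The single-agent IC50 comes from dose responses fitted to a two-parameter logistic curve with a non-linear mixed effects model.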

[2] = compound: CC(C)n1c(=O)n(C)c2cnc3cc(F)c(-c4ccc(OCCCN5CCCCC5)nc4)cc3c21 [AZD1390]; conditions: max 0.3 µM
Outline: as §1

[3] = compound: Nc1ccn([C@@H]2O[C@H](CO)[C@@H](O)C2(F)F)c(=O)n1 [Gemcitabine]; conditions: max 0.3 µM
Outline: as §1

[4] = compound: C1CN(CCC1(C(=O)N[C@@H](CCO)C2=CC=C(C=C2)Cl)N)C3=NC=NC4=C3C=CN4 [AZD5363]; conditions: max 10 µM
Outline: as §1

[5] = compound: CCc1c2c(nc3ccc(O)cc13)-c1cc3c(c(=O)n1C2)COC(=O)[C@]3(O)CC [SN-38]; conditions: max 0.3 µM
Outline: as §1

[6] = compound: C[C@@H](Nc1cc(F)cc(F)c1)c1cc(C(=O)N(C)C)cc2c(=O)cc(N3CCOCC3)oc12 [AZD8186]; conditions: max 10 µM
Outline: as §1

[7] = compound: O=c1[nH]cc(F)c(=O)[nH]1 [5-Fluorouracil]; conditions: max 20 µM
Outline: as §1

[8] = compound: COc1cc(Nc2ncc3c(n2)-c2ccc(Cl)cc2C(c2c(F)cccc2OC)=NC3)ccc1C(=O)O [Alisertib]; conditions: max 10 µM
Outline: as §1

[9] = compound: C=CCn1c(=O)c2cnc(Nc3ccc(N4CCN(C)CC4)cc3)nc2n1-c1cccc(C(C)(C)O)n1 [AZD1775]; conditions: max 3 µM
Outline: as §1

[10] = compound: O=C(c1cc(Cc2n[nH]c(=O)c3ccccc23)ccc1F)N1CCN(C(=O)C2CC2)CC1 [Olaparib]; conditions: max 10 µM
Outline: as §1

[11] = compound: NC1(c2ccc(-c3nc4ccn5c(=O)[nH]nc5c4cc3-c3ccccc3)cc2)CCC1 [MK-2206]; conditions: max 10 µM
Outline: as §1

[12] = compound: CC1=CN2[C@@H](C1)C=NC3=CC(=C(C=C3C2=O)OC)OCCCCCOC4=C(C=C5C(=C4)N=C[C@@H]6CC(=CN6C5=O)C)OC [SG3199]; conditions: max 0.001 µM
Outline: as §1

[13] = compound: O=C(Nc1ccc2[nH]nc(-c3ccncc3)c2c1)[C@@H]1CCN(CC(=O)N2CCN(c3ccc(-c4ncccn4)cc3)CC2)C1; conditions: max 5 µM
Outline: as §1

[14] = compound: CC(=O)c1c(C)c2cnc(Nc3ccc(N4CCNCC4)cn3)nc2n(C2CCCC2)c1=O [Palbociclib]; conditions: max 10 µM
Outline: as §1

[15] = compound: CN(C)CCCOc1ccc(-c2ccc3ncc4c(c3c2)n(C2CCOCC2)c(=O)n4C)cn1 [AZD0156]; conditions: max 3 µM
Outline: as §1

[16] = compound: COc1cc2ncnc(Nc3ccc(F)c(Cl)c3)c2cc1OCCCN1CCOCC1 [Gefitinib]; conditions: max 10 µM
Outline: as §1

[17] = compound: COc1cc([C@@H]2c3cc4c(cc3[C@@H](O[C@@H]3O[C@@H]5CO[C@@H](C)O[C@H]5[C@H](O)[C@H]3O)[C@H]3COC(=O)[C@H]23)OCO4)cc(OC)c1O [Etoposide]; conditions: max 10 µM
Outline: as §1

[18] = compound: CC(=O)O[C@H]1C(=O)[C@@]2(C)[C@H]([C@H](OC(=O)c3ccccc3)[C@]3(O)C[C@H](OC(=O)[C@H](O)[C@@H](NC(=O)c4ccccc4)c4ccccc4)C(C)=C1C3(C)C)[C@]1(OC(C)=O)CO[C@@H]1C[C@@H]2O [Paclitaxel]; conditions: max 3 µM
Outline: as §1

[19] = compound: CCN(CCO)CCCOc1ccc2c(Nc3cc(CC(=O)Nc4cccc(F)c4)[nH]n3)ncnc2c1 [AZD2811]; conditions: max 1 µM
Outline: as §1

[20] = compound: CC(=O)Nc1cccc(-n2c(=O)n(C3CC3)c(=O)c3c(Nc4ccc(I)cc4F)n(C)c(=O)c(C)c32)c1 [Trametinib]; conditions: max 1 µM
Outline: as §1

[21] = compound: C[C@@H](c1ccc2nccn2c1)n1nnc2ncc(-c3cnn(C)c3)nc21 [Savolitinib]; conditions: max 1 µM
Outline: as §1

[22] = compound: COc1nnc2ccc(N3CCC(c4ccc(OCCN5CCN(C)C(=O)[C@H]5C)cc4)CC3)nn12 [AZD5153]; conditions: max 1 µM
Outline: as §1

[23] = compound: COc1cccc2c1C(=O)c1c(O)c3c(c(O)c1C2=O)C[C@@](O)(C(=O)CO)C[C@@H]3O[C@H]1C[C@H](N)[C@H](O)[C@H](C)O1 [Doxorubicin]; conditions: max 1 µM
Outline: as §1

[24] = compound: CN(CC[C@H](CSC1=CC=CC=C1)NC2=C(C=C(C=C2)S(=O)(=O)NC(=O)C3=CC=C(C=C3)N4CCC(CC4)[C@H](C5=CC=CC=C5C6=CC=C(C=C6)Cl)O)S(=O)(=O)C(F)(F)F)CCO [AZD4320]; conditions: max 1 µM
Outline: as §1

[25] = compound: C1CC(C1)(C(=O)[O-])C(=O)[O-].N.N.[Pt+2] [Carboplatin]; conditions: max 10 µM
Outline: as §1

[26] = compound: C[C@@H]1COCCN1C2=NC(=NC(=C2)C3(CC3)[S@](=N)(=O)C)C4=C5C=CNC5=NC=C4 [AZD6738]; conditions: max 10 µM
Outline: as §1

[27] = compound: CS(=O)(=O)CCNCc1ccc(-c2ccc3ncnc(Nc4ccc(OCc5cccc(F)c5)c(Cl)c4)c3c2)o1 [Lapatinib]; conditions: max 10 µM
Outline: as §1

[28] = compound: C[C@@H](Oc1cc(-c2cnn(C3CCNCC3)c2)cnc1N)c1c(Cl)ccc(F)c1Cl [Crizotinib]; conditions: max 10 µM
Outline: as §1

[29] = compound: CC1(C)CCC(CN2CCN(c3ccc(C(=O)NS(=O)(=O)c4ccc(NCC5CCOCC5)c([N+](=O)[O-])c4)c(Oc4cnc5[nH]ccc5c4)c3)CC2)=C(c2ccc(Cl)cc2)C1 [Venetoclax]; conditions: max 1 µM
Outline: as §1

[30] = compound: Cc1nc(-c2cn3c(n2)-c2ccc(-c4cnn(C(C)(C)C(N)=O)c4)cc2OCC3)n(C(C)C)n1 [Taselisib]; conditions: max 10 µM
Outline: as §1

[31] = compound: N#Cc1cnc(Nc2cc(NC[C@H]3CNCCO3)c(C(F)(F)F)cn2)cn1 [SRA737]; conditions: max 10 µM
Outline: as §1

[32] = compound: COc1cccc(OCCCN)c1-c1cc(Nc2cnc(C#N)cn2)n[nH]1 [Prexasertib]; conditions: max 1 µM
Outline: as §1

[33] = compound: Cn1cnc2c(F)c(Nc3ccc(Br)cc3Cl)c(C(=O)NOCCO)cc21 [Selumetinib]; conditions: max 10 µM
Outline: as §1

[34] = compound: Cc1cc2ncnn2cc1Nc1ncc2c(n1)n(C1CCOCC1)c(=O)n2C [AZD7648]; conditions: max 10 µM
Outline: as §1

[35] = compound: CC1=C(C(=CC=C1)Cl)NC(=O)C2=CN=C(S2)NC3=CC(=NC(=N3)C)N4CCN(CC4)CCO [Dasatinib]; conditions: max 2 µM
Outline: as §1

Row | Cell Line | IC50, cell viability 72 h [1] | IC50, cell viability 72 h [2] | IC50, cell viability 72 h [3] | IC50, cell viability 72 h [4] | IC50, cell viability 72 h [5] | IC50, cell viability 72 h [6] | IC50, cell viability 72 h [7] | IC50, cell viability 72 h [8] | IC50, cell viability 72 h [9] | IC50, cell viability 72 h [10] | IC50, cell viability 72 h [11] | IC50, cell viability 72 h [12] | IC50, cell viability 72 h [13] | IC50, cell viability 72 h [14] | IC50, cell viability 72 h [15] | IC50, cell viability 72 h [16] | IC50, cell viability 72 h [17] | IC50, cell viability 72 h [18] | IC50, cell viability 72 h [19] | IC50, cell viability 72 h [20] | IC50, cell viability 72 h [21] | IC50, cell viability 72 h [22] | IC50, cell viability 72 h [23] | IC50, cell viability 72 h [24] | IC50, cell viability 72 h [25] | IC50, cell viability 72 h [26] | IC50, cell viability 72 h [27] | IC50, cell viability 72 h [28] | IC50, cell viability 72 h [29] | IC50, cell viability 72 h [30] | IC50, cell viability 72 h [31] | IC50, cell viability 72 h [32] | IC50, cell viability 72 h [33] | IC50, cell viability 72 h [34] | IC50, cell viability 72 h [35]
1 | SN12C (Kidney Carcinoma) | > 1000 nM | > 300 nM | > 300 nM | > 10 µM | 290 nM | > 10000 nM | > 20 µM | > 10000 nM | > 3000 nM | > 10 µM | > 10 µM | > 1 nM | > 5 µM | > 10 µM | > 3000 nM | > 10 µM | > 10 µM | > 3000 nM | > 1000 nM | > 1000 nM | > 1000 nM | > 1000 nM | > 1000 nM | > 1000 nM | > 10 µM | > 10 µM | > 10 µM | > 10 µM | > 1000 nM | > 10 µM | > 10 µM | > 1000 nM | > 10 µM | > 10 µM | > 2000 nM
2 | TE-5 (Esophageal Squamous Cell Carcinoma) | > 1000 nM | > 300 nM | 71.4 nM | > 10 µM | 55.8 nM | > 10000 nM | > 20 µM | > 10000 nM | > 3000 nM | > 10 µM | > 10 µM | > 1 nM | > 5 µM | > 10 µM | > 3000 nM | > 10 µM | > 10 µM | 79.8 nM | > 1000 nM | > 1000 nM | > 1000 nM | > 1000 nM | > 1000 nM | > 1000 nM | > 10 µM | > 10 µM | > 10 µM | > 10 µM | > 1000 nM | 2.04 µM | > 10 µM | 884 nM | > 10 µM | > 10 µM | > 2000 nM
3 | SW1990 (Pancreatic Carcinoma) | > 1000 nM | > 300 nM | > 300 nM | > 10 µM | > 300 nM | > 10000 nM | > 20 µM | > 10000 nM | > 3000 nM | > 10 µM | > 10 µM | > 1 nM | > 5 µM | > 10 µM | > 3000 nM | > 10 µM | > 10 µM | > 3000 nM | > 1000 nM | > 1000 nM | > 1000 nM | > 1000 nM | > 1000 nM | > 1000 nM | > 10 µM | > 10 µM | > 10 µM | > 10 µM | > 1000 nM | > 10 µM | 9.75 µM | 49.9 nM | > 10 µM | > 10 µM | > 2000 nM
4 | ES7 (Ewing's Sarcoma) | 861 nM | > 300 nM | 6.44 nM | > 10 µM | 1.13 nM | 2000 nM | 12.3 µM | 249 nM | 1070 nM | 3.82 µM | 7.75 µM | > 1 nM | > 5 µM | 3.87 µM | > 3000 nM | > 10 µM | 0.257 µM | 3.3 nM | 25.4 nM | > 1000 nM | > 1000 nM | 289 nM | 38.8 nM | 204 nM | > 10 µM | 2.44 µM | > 10 µM | 3.36 µM | > 1000 nM | 3.02 µM | 7.44 µM | 33 nM | > 10 µM | > 10 µM | > 2000 nM
5 | SW1088 (Low Grade Glioma) | > 1000 nM | > 300 nM | > 300 nM | 6.48 µM | > 300 nM | 1740 nM | > 20 µM | 807 nM | 2040 nM | > 10 µM | > 10 µM | > 1 nM | > 5 µM | > 10 µM | > 3000 nM | > 10 µM | > 10 µM | 29.1 nM | > 1000 nM | > 1000 nM | > 1000 nM | > 1000 nM | > 1000 nM | > 1000 nM | > 10 µM | 9.51 µM | > 10 µM | > 10 µM | > 1000 nM | 4.28 µM | > 10 µM | 129 nM | > 10 µM | > 10 µM | 283 nM

— the supplement of paper PMC11061612
